Reference: publication PMC8750417, “Intracellular Amplifiers of Reactive Oxygen Species Affecting Mitochondria as Radiosensitizers” (Cancers, 2021)
Read-outs that look alike come from different tables or passages of the source.

What was measured:
A2780 cells = test: Mitochondrial ROS (MitoSOX, flow cytometry), A2780; assay type: cell-based, human
Method: Monitoring mitochondrial ROS (mROS)
A2780 cells were seeded in RPMI 1640 medium containing 5% FBS, 1% L-glutamine and 1% penicillin/streptomycin in a 96-well microtiter plate (total volume 0.1 mL) at a density of 250 cells/µL one day before the experiment. On the day of the experiment, the cells were washed with DPBS buffer and a fresh portion of RPMI 1640 medium containing 5% FBS, 1% L-glutamine and 1% penicillin/streptomycin (100 µL) was added followed by addition of compounds (1 μL of stock solutions in DMSO, final concentration of the prodrugs was 5, 10 μM and 30 μM) or carrier only (DMSO, 1 µL, final concentration 1 %, v/v) and incubation for 1 or 2 h in the dark chamber filled with CO 2 (5%) at 37 °C. After that, the cells were washed twice with DPBS buffer and the medium was replaced with HBSS (Hanks' Balanced Salt solution, 50 μL) containing MitoSOX (Red Mitochondrial Superoxide Indicator, Thermo-Fisher, Catalog number M36008, final concentration 5 µM obtained by adding 0.5 µ L of the 0.5 mM stock solution of MitoSOX in DMSO to the HBSS ) […]
(1 picture or pasted object on this page, not shown here) […]
and the cells were incubated in the dark chamber filled with CO2 (5%) at 37 °C for 20 min.
Next, the cells were detached from the culture dish using trypsin/EDTA (0.025%/0.01%, v/v, 50 µL). The cells were re-suspended in RPMI 1640 medium containing 5% FBS, 1% L-glutamine and 1% penicillin/streptomycin (100 µL). Finally, the fluorescence of live cells (λex = 488 nm, λem = 578 nm) in the suspensions was determined by using flow cytometry

SAS and FaDu cells = test: Semi-quantitative radiosensitization grade over SAS and FaDu; assay type: cell-based, human; set-up: key: no radiosensitization (“-”); weak effect or effect in one cell line only (“+/−”); clear/strong (“+”) radiosensitization; conditions: clonogenic survival with irradiation
Method: defined low density (150-300 cells in 1 ml per well). After 8 h of incubation to allow cell adherence, 50% of the supernatant was exchanged by media containing the respective prodrugs at 2x concentration and exposed for 48 h. Treatment was then terminated by medium removal, and cells were allowed to grow for a period of ≥5-6 cell divisions estimated from the cell line-specific doubling times of the respective untreated controls (~7 days for SAS and ~10 days for FaDu cells). Control cells were always handled in parallel to the treated cells and thus exposed to the corresponding DMSO concentration(s). After the defined growth intervals, cells were fixed, stained and colonies of >50 cells were manually counted at low magnification to calculate plating efficiencies as the number of counted colonies relative to the number of seeded cells. Drug effect on clonogenic survival was then estimated by normalizing the colony formation of control cells to 1 (Table S9).
The colony formation assay was also applied for monitoring radioresponse. Here, increasing numbers of single cells relative to the irradiation dose (0-10 Gy) were seeded into 6-well plates (150-2400 SAS cells/well and 300-4800 FaDu cells/well).
Cells were treated with the drugs upon attachment as described. The total period of drug exposure was 48 h, and single dose irradiation was carried out 24 h after addition of the compounds. X-ray was performed at room temperature with a YxlonY.TU 320 system (Yxlon.international, 200 kV, 0.5 mm Cu filter) and a dose rate of ~1.3 Gy/min. Drug exposure was terminated by medium exchange and cultures were then incubated for the additional time period highlighted earlier.
Plating efficiencies were assessed and normalized for each treatment arm to the respective unirradiated control. Data were reproduced (N=3 each with n=3 wells per experiment and treatment condition). The relative clonogenic cell survival (= survival fraction, SF) was then plotted as function of the irradiation dose, and clonogenic survival curves were fitted employing the linear quadratic model as described

[1] = n-octanol/water partition coefficient (logP) by RP-TLC; assay type: physicochemical
Method: Determination of n-octanol/water partition coefficients (LogP) […]
mixture of dichloromethane/CH3OH at proper concentrations. Commercially available […]
7.4) (6/4, v/v) was used. The solvent migration distance was around 4.5 cm. The plates […]
and its distance was manually measured. All measurements were done in at least triplicate and average values were used in further calculations. All experiments were performed at ambient temperature (22 ± 2 °C). […]

SAS cells = test: Cytotoxicity MTT assay, SAS; assay type: cell-based, human; conditions: for EC50: read-out: 50% cell survival (EC50)
Method: Optimization of concentration of prodrugs and controls / MTT assay
The MTT assay was also applied to assess the impact of various drugs (0.01-100 µM) on the viability of the two human head and neck squamous carcinoma cell (HNSCC) lines SAS and FaDu as well as retinal pigment epithelial ARPE-19 cells and human fibroblasts (HF). Cells were seeded into 96-well plates at concentrations of 4000 and 2000 cells per […]
h before exposure to the drugs. All drug dilutions were prepared from 20 mM stock solutions in DMSO. The final DMSO concentration was set to 0.5% in all sample s including control. After completion of the treatment, the wells were processed according to the routine MTT protocol as described above; the formazan absorbance was then measured on a Biotek Epoch Microplate Spectrophotometer at 590 nm and corrected for the background signal at 620 nm. N≥3 independent experiments were performed for each drug candidate, cell type and treatment interval. Cell survival was recorded as function of the drug concentration, and dose-response curves were fitted with the Boltzmann equation where appropriate. We calculated the half-maximal response (EC50) as well as the EC20 (80% survival) according to the line curve (see Tables S6-S8). EC20-values were used as a basis to select the compound-specific non-toxic drug concentrations for combination with radiotherapy.

SMILES: CC1(C)OB(c2ccc(COC(=O)N(Cc3cn(Cc4ccc(Cn5cc(Cc6ccccc6)nn5)cc4)nn3)[c-]3cccc3)cc2)OC1(C)C.[Fe+2].c1cc[cH-]c1 [2c]
- mitochondrial ROS (mROS) vs non-treated cells (A2780 cells): significantly increased
- Radiosensitization (SAS and FaDu cells; 10 µM): +/−
- Radiosensitization (SAS and FaDu cells; 25 µM): +
- logP (Hydrolyzed Prodrug) ([1]; n-octanol/water partition coefficient of the hydrolyzed boronic acid (_BA) form of the prodrug named): 3.23 ± 0.11
- logP (Prodrug) ([1]; n-octanol/water partition coefficient of the intact prodrug (or control 2c_c), RP-TLC, MOPS pH 7.4): 5.37 ± 0.15
- 80% cell survival (EC20) (SAS cells; 24h): > 50 µM
- EC50 (SAS cells; 24h): > 50 µM
- 80% cell survival (EC20) (SAS cells; 48h): 10.4 ± 6.8 µM
- EC50 (SAS cells; 48h): > 50 µM

SMILES: CC1(C)OB(c2ccc(COC(=O)N(Cc3cccc(CN4CCCCC4)c3)[c-]3cccc3)cc2)OC1(C)C.[Fe+2].c1cc[cH-]c1 [5b]
- mitochondrial ROS (mROS) vs non-treated cells (A2780 cells): did not affect mROS
- Radiosensitization (SAS and FaDu cells; 1 µM): +
- Radiosensitization (SAS and FaDu cells; 2.5 µM): +
- 80% cell survival (EC20) (SAS cells; 24h): 7.0 ± 1.5 µM
- EC50 (SAS cells; 24h): 18.7 ± 4.7 µM
- 80% cell survival (EC20) (SAS cells; 48h): 2.4 ± 1.3 µM
- EC50 (SAS cells; 48h): 5.8 ± 0.8 µM

SMILES: CCOC(=O)CCCCCn1cc(CN(C(=O)OCc2ccc(B3OC(C)(C)C(C)(C)O3)cc2)[c-]2cccc2)nn1.[Fe+2].c1cc[cH-]c1 [compound 1]
- mitochondrial ROS (mROS) vs non-treated cells (A2780 cells): substantially weaker
- logP (Hydrolyzed Prodrug) [1]: 2.83 ± 0.07
- logP (Prodrug) ([1]; pH 7.4): 4.87 ± 0.05

SMILES: [Fe+2].c1cc[cH-]c1.c1cc[cH-]c1 [compound 6, ferrocene]
- Radiosensitization (SAS and FaDu cells; 25 µM): -
- 80% cell survival (EC20) (SAS cells; 24h): > 50 µM
- EC50 (SAS cells; 24h): > 50 µM
- 80% cell survival (EC20) (SAS cells; 48h): > 50 µM
- EC50 (SAS cells; 48h): > 50 µM
